Residues, ends and D or L forms follow the SMILES beside them.
Columns and labels:
Aerococcus viridans = type: cell-based; conditions: interval [a]-[b], tested spheniscin-2 0.2-100 μM, MSI-94 0.2-10 μM
Procedure: (§1) The bacteria to be tested were suspended in a suitable nutritive medium of the “poor broth” type corresponding to a solution of bactotryptone at 10 g/l with the addition of NaCl 5 g/l in ultrapure water.
(§2) Antimicrobial activities were detected by a growth inhibition test in microtitration plates (Hétru and Bulet, 1997). One deposited […] of each fraction collected in mictrotitration plates in the presence of 90 μl of culture medium containing the microorganisms (at a final concentration equivalent to 1 mDO at 600 nm).
(§3) For the bacteria and the yeast, incubation was performed at 30° C. for 12-24 h under agitation. The growth of the microorganisms was measured by monitoring the absorbance at 600 nm by means of a spectrophotometer reader of microtitration plates.
(§4) The antimicrobial activities expressed in minimal inhibitory concentration (MIC) of spheniscin 2 (concentrations comprised between 0.2 μM and 100 μM) were determined against bacteria, yeasts and fungi using a growth inhibition test in liquid medium in microtitration plates (for the detailed protocol see example 2.4 as well as Hétru and Bulet, 1997).
(§5) The minimal growth inhibitory concentration (MIC) corresponds to the interval [a]-[b] in which [a] is the strongest concentration tested for which the microorganism grows and [b] is the weakest concentration tested starting at which there is 100% inhibition of growth of the microorganism (Casteels and Tempst, 1994). The control peptides were MSI-94 (a peptide of the mangainin family stemming from the skin of the batrachian Xenopus laevis and presenting a broad spectrum of antimicrobial activity; Maloy and Kari, 1995) for testing against the bacteria and yeasts; and thanatin (an antifungal peptide stemming from the insect Podisus maculiventris; Fehlbaum et al., 1996) for testing against the filamentous fungi.

B. megaterium = type: cell-based; conditions: interval [a]-[b], tested spheniscin-2 0.2-100 μM, MSI-94 0.2-10 μM
Procedure: as §1, §2, §3, §4, §5

Bacillus subtilis = type: cell-based; conditions: interval [a]-[b], tested spheniscin-2 0.2-100 μM, MSI-94 0.2-10 μM
Procedure: as §1, §2, §3, §4, §5

Escherichia coli SBS 363 = type: cell-based; conditions: interval [a]-[b], tested spheniscin-2 0.2-100 μM, MSI-94 0.2-10 μM
Procedure: as §1, §2, §3, §4, §5

Klebsiella pneumoniae = type: cell-based; conditions: interval [a]-[b], tested spheniscin-2 0.2-100 μM, MSI-94 0.2-10 μM
Procedure: as §1, §2, §3, §4, §5

Listeria monocytogenes = type: cell-based; conditions: interval [a]-[b], tested spheniscin-2 0.2-100 μM, MSI-94 0.2-10 μM
Procedure: as §1, §2, §3, §4, §5

Micrococcus luteus = type: cell-based; conditions: interval [a]-[b], tested spheniscin-2 0.2-100 μM, MSI-94 0.2-10 μM
Procedure: as §1, §2, §3, §4, §5

Nocardia asteroides = type: cell-based; conditions: interval [a]-[b], tested spheniscin-2 0.2-100 μM, MSI-94 0.2-10 μM
Procedure: as §1, §2, §3, §4, §5

[1] = test system: Pseudomonas aeruginosa ATCC 82118; type: cell-based; conditions: interval [a]-[b], tested spheniscin-2 0.2-100 μM, MSI-94 0.2-10 μM
Procedure: as §1, §2, §3, §4, §5

S. haemolyticus = type: cell-based; conditions: interval [a]-[b], tested spheniscin-2 0.2-100 μM, MSI-94 0.2-10 μM
Procedure: as §1, §2, §3, §4, §5

Salmonella typhimurium = type: cell-based; conditions: interval [a]-[b], tested spheniscin-2 0.2-100 μM, MSI-94 0.2-10 μM
Procedure: as §1, §2, §3, §4, §5

Staphylococcus aureus = type: cell-based; conditions: interval [a]-[b], tested spheniscin-2 0.2-100 μM, MSI-94 0.2-10 μM
Procedure: as §1, §2, §3, §4, §5

B. cereus ATCC 11778 = type: cell-based, Bacillus cereus; conditions: interval [a]-[b], tested spheniscin-2 0.2-100 μM, MSI-94 0.2-10 μM
Procedure: as §1, §2, §3
as §4, with “1997). […]” for “1997).”

S. saprophyticus = type: cell-based, Staphylococcus saprophyticus; conditions: interval [a]-[b], tested spheniscin-2 0.2-100 μM, MSI-94 0.2-10 μM
Procedure: as §1, §2, §3
as §4, with “1997). […]” for “1997).”

E. coli 1106 = type: cell-based, Escherichia coli; conditions: interval [a]-[b], tested spheniscin-2 0.2-100 μM, MSI-94 0.2-10 μM
Procedure: as §1, §2, §3
as §4, with “1997). […]” for “1997).”

[2] = test system: V. anguillarum ATCC 19264; assay: MIC, growth inhibition test in liquid medium in microtitration plates; type: cell-based; conditions: interval [a]-[b], tested spheniscin-2 0.2-100 μM
Procedure: as §1, §2, §3
as §4, with “1997). […]” for “1997).”

[3] = test system: Vibrio metshnikovii NCTC 8483; assay: as above; type: cell-based; conditions: interval [a]-[b], tested spheniscin-2 0.2-100 μM
Procedure: as §1, §2, §3
as §4, with “1997). […]” for “1997).”

C. tropicalis = type: cell-based; conditions: interval [a]-[b], tested spheniscin-2 0.2-100 μM, MSI-94 0.2-10 μM
Procedure: (§6) The yeast strain C. albicans to be tested was incubated in a suitable culture medium of the “Sabouraud” type.
as §2, §3, §4
(§7) The minimal growth inhibitory concentration (MIC) corresponds to the interval [a]-[b] in which [a] is the strongest concentration tested for which the microorganism grows and [b] is the weakest concentration tested starting at which there is 100% inhibition of growth of the microorganism (Casteels and Tempst, 1994). […]

Candida glabrata = type: cell-based; conditions: tested spheniscin-2 0.2-100 μM, MSI-94 0.2-10 μM, ND = activity not detected in range tested
Procedure: as §6, §2, §3, §4, §7

C. albicans IHEM 8060 = type: cell-based, Candida albicans; conditions: interval [a]-[b], tested spheniscin-2 0.2-100 μM, MSI-94 0.2-10 μM
Procedure: as §6, §2, §3, §4, §7

Aspergillus fumigatus = type: cell-based; conditions: interval [a]-[b], tested spheniscin-2 0.2-100 μM, thanatin 0.4-41.1 μM
Procedure: (§8) The spores of the fungus N. crassa to be tested were suspended in a suitable culture medium of the “potato infusion—glucose” type. Preference was given to the use of 12 g of potato dextrose broth medium (1/2 PDB, Difco) per 1 liter of demineralized water. Two antibiotics were added to the culture medium: cefotaxime (final concentration at 100 μg/ml) and tetracycline (final concentration at 10 μg/ml).
as §2
(§9) For the filamentous fungi, the incubation was performed at 37° C. in a humid atmosphere for 48 hours.
as §4, with “1997). […]” for “1997).”

Neurospora crassa = type: cell-based; conditions: interval [a]-[b], tested spheniscin-2 0.2-100 μM, thanatin 0.4-41.1 μM
Procedure: as §8, §2, §9
as §4, with “1997). […]” for “1997).”

CC[C@H](C)[C@@H]1NC(=O)[C@@H]2CCCN2C(=O)[C@H]([C@@H](C)CC)NC(=O)[C@H](CO)NC(=O)[C@@H]2CCCN2C(=O)[C@H](Cc2ccccc2)NC(=O)[C@H](CCCNC(=N)N)NC(=O)[C@@H]2CSSC[C@@H](C(=O)N[C@@H](CCCNC(=N)N)C(=O)N[C@@H](CCCNC(=N)N)C(=O)N[C@H](C(=O)N[C@@H](Cc3c[nH]c4ccccc34)C(=O)O)C(C)C)NC(=O)[C@@H]3CSSC[C@H](NC(=O)[C@H](CC(C)C)NC(=O)CNC(=O)[C@H](Cc4ccccc4)NC(=O)[C@@H](N)CO)C(=O)N[C@@H](CCCNC(=N)N)C(=O)N[C@@H](CC(C)C)C(=O)N[C@@H](CCCNC(=N)N)C(=O)N[C@@H](CCCNC(=N)N)C(=O)NCC(=O)N[C@@H](Cc4ccccc4)C(=O)N[C@@H](CSSC[C@H](NC(=O)[C@H](CCCNC(=N)N)NC(=O)CNC1=O)C(=O)N[C@@H](CO)C(=O)N[C@@H](CCCNC(=N)N)C(=O)N[C@@H](Cc1ccccc1)C(=O)N[C@@H](C(C)C)C(=O)N[C@@H](CCC(N)=O)C(=O)N3)C(=O)N[C@@H](C)C(=O)N[C@@H](CCCNC(=N)N)C(=O)NCC(=O)N[C@@H](CCCNC(=N)N)C(=O)N2 [spheniscin-2] (HELM PEPTIDE1{S.F.G.L.C.R.L.R.R.G.F.C.A.R.G.R.C.R.F.P.S.I.P.I.G.R.C.S.R.F.V.Q.C.C.R.R.V.W}$PEPTIDE1,PEPTIDE1,5:R3-33:R3|PEPTIDE1,PEPTIDE1,12:R3-27:R3|PEPTIDE1,PEPTIDE1,17:R3-34:R3$$$V2.0; N-terminus and C-terminus assumed)
MIC (Aerococcus viridans): 0.4 to 0.8 µM | MIC (B. megaterium): 0.4 to 0.8 µM | MIC (Bacillus subtilis): 0.8 to 1.5 µM | MIC (Escherichia coli SBS 363): 0.8 to 1.5 µM | MIC (Klebsiella pneumoniae): 50 to 100 µM | MIC (Listeria monocytogenes): 6 to 12 µM | MIC (Micrococcus luteus): 1.5 to 3 µM | MIC (Nocardia asteroides): 0.8 to 1.5 µM | MIC [1]: 6 to 12 µM | MIC (S. haemolyticus): 1.5 to 3 µM | MIC (Salmonella typhimurium): 6 to 12 µM | MIC (Staphylococcus aureus): 1.5 to 3 µM | MIC (B. cereus ATCC 11778): 3 to 6 µM | MIC (S. saprophyticus): 1.5 to 3 µM | MIC (E. coli 1106): 1.5 to 3 µM | MIC [2]: 25 to 50 µM | MIC [3]: 25 to 50 µM | MIC (C. tropicalis): 1.5 to 3 µM | MIC (Candida glabrata): >100 µM | MIC (C. albicans IHEM 8060): 50 to 100 µM | MIC (Aspergillus fumigatus): 3 to 6 µM | MIC (Neurospora crassa): 3 to 6 µM

— patent US7384911B2, “Peptides having antimicrobial properties and compositions containing them, notably for the preservation of foodstuffs” (priority 2002, dated 2008)
